Laboratory results published in paper PMC2734971 (Pharmaceutical research, 2009).
Where no end group is shown, it is not given here.

What was measured:
[1] = tested on: solid tumors / αVβ3 integrins; conditions: prostate tumors; cited from earlier work
[2] = tested on: MDA-MB-231 tumor xenografts; test: In vivo MR T1-mapping of MDA-MB-231 tumor-bearing SCID mice; design: species or system SCID mice (human breast cancer xenograft)
kidney = test: T1-weighted coronal MR imaging, kidney signal; type: in vivo, SCID mice; conditions: up to 24 h; 0.03 mmol-Gd/kg i.v.; 9.4 tesla

Substance | enhancement of tumor accumulation vs copolymers without targeting peptide [1] | T1 at tumor site, targetable vs non-targetable, other time points ([2]; 10 min, 30 min, 1, 6, 24 h, 0.03 mmol-Gd/kg i.v.) | mean T1 value at tumor site, 2 h post-injection ([2]; 2 h after i.v. injection, 0.03 mmol-Gd/kg, 9.4 tesla, 4 mice/group, mean±SD) | signal enhancement in kidney (kidney)
KACDCRGDCFCG (also: bicyclic or more (positions not given here)) [RGD4C] | four to fivefold enhancement | – | – | –
P-RGDfK-Gd: HPMA copolymer with Gd-DOTA and RGDfK side chains; Mw 43,000; 0.428 mmol/g RGDfK, 0.14 mmol/g Gd | – | no significant difference | 1950 ± 189.8 ms | signal enhancement in kidney up to 24 h
